In patent publication US9937250B2, “Immunogenic tumor associated stromal cell antigen peptides and methods of their use” (University of Pittsburgh—Of the Commonwealth System of …, priority 2011, dated 2018):

Experiments:
CD8+ splenocytes = assay: Tc1 response to DC.IL12/peptide vaccination (splenic CD8+ T cell IFN-γ ELISA against peptide-pulsed T2 cells); type: in vivo, HHD mice; conditions: DC.IL12 pulsed with peptide(s), two s.c. vaccinations; versus DC only
Description: FIGS. 9A-9B show a series of graphs illustrating induction of specific/protective CD8^+ T cells reactive against TASA as a consequence of DC/peptide-based vaccination. In FIG. 9A, HHD mice (five animals/cohort) were vaccinated twice (d-14, d-7) subcutaneously with PBS or with isologous DC.IL12 pulsed with PBS or synthetic peptides (Table 6) derived from the indicated TASA. In cases where more than 1 peptide was identified for a given target antigen, an equimolar pool of the indicated peptides (each 10 μM) was pulsed onto DC.IL12 and used for vaccination in the relevant cohort. One week after the second immunization, spleens were harvested and splenic CD8^+ T cells isolated using MACS-beads (Miltenyi). T cells were stimulated in vitro for 48 h using the HLA-A2^+ T2 cell line pulsed with relevant TASA vs. irrelevant HIV-nef190-198 ([…]; ref. 24) peptides. Cell-free supernatants were then recovered and IFN-γ levels by ELISA. Data are reported as mean+/−SD for triplicate ELISA determinations, and are representative of 3 independent experiments performed. *p<0.05 vs. HIV-nef control peptide responses. In FIG. 9B, HHD mice were vaccinated twice (days −14 and −7; right flank) subcutaneously with PBS or with isologous DC.IL12 pulsed with PBS or synthetic TASA peptides as indicated in FIG. 1A. In cases where more than 1 peptide is identified for a given target antigen, an equimolar pool of the indicated peptides (each 10 μM) was pulsed onto DC.IL12 and used for vaccination in the relevant cohort. One week after the booster vaccine (i.e. day zero), animals were challenged subcutaneously on their left flank with 2×10^6 MC38 colon carcinoma cells. Tumor growth was then monitored every 3-4 days through day 24. All data represent mean tumor area (in mm^2)+/−SD determined from 5 mice/cohort, and are representative of three independent experiments performed. *p<0.05 versus DC only on the indicated days.
Vaccine Experiments. For prophylactic experiments, HHD mice were immunized subcutaneously on the right flank with 100 μl PBS or PBS containing 10^6 syngenic DC.IL12 cells that had been untreated or pre-pulsed for 4 h at 37° C. with 10 μM synthetic peptide(s). Immunizations occurred on days −14 and −7, with mice subsequently receiving injections of MC38 (2×10^6) tumor cells in the left flank on d0. In all cases, treatment groups contained 5 mice per cohort. For analysis of tumor cellular composition in repeat experiments, MC38 tumors were isolated by surgical resection 10 days after tumor inoculation and prepared for fluorescence imaging, as described below. […] Mice were then untreated or treated with control, syngenic DC.IL12 or DC.IL12 (10^6 cells injected subcutaneously in the left flank on days 7 and 14) pulsed with synthetic TBVA peptides. In some assays, as indicated, in vivo antibody depletions (on days 6, 13 and 20 post-tumor inoculation to assess early involvement or on days 60 and 67 or 180 and 187 to assess late involvement) of protective CD4^+ T cells or CD8^+ T cells were performed and monitored as previously described (Zhao et al., Mol Ther., 19:805-814, 2011). In all cases, tumor size (area) was monitored every 3-4 days and is reported as mean+/−SD in mm^2.
Evaluation of Specific CD8^+ T Cell Responses in HHD Mice. MACS (Miltenyi Biotec) CD8^+ splenocytes were harvested (from 3 mice/group) 7 days after the second round of DC-based vaccination (i.e. day 21 after tumor inoculation) and analyzed for reactivity against unpulsed T2 cells, TBVA peptide-pulsed T2 cells, or day 19 (flow-sorted) B16-derived PDGFRβ^+CD31^negH-2K^b(neg) pericytes or PDGFRβ^negCD31^+H-2K^b(neg) VEC isolated as previously described (Zhao et al., Mol Ther., 19:805-814, 2011). Where indicated, 10 μg of anti-HLA-A2 mAb BB7.2 or control anti-class II mAb L243 (both from ATCC, Manassas, Va.) were added to replicate co-culture wells. After 48 h, supernatants were analyzed for mIFN-γ content by specific ELISA (BD-Biosciences; lower detection limit=31.3 pg/ml). […]

[1] = system: CD8+ T cells from HLA-A2+ normal donors or HLA-A2+ melanoma patients; assay: In vitro sensitization of human CD8+ T cells with TASA peptide-pulsed autologous DC, IFN-γ ELISA against peptide-pulsed T2 cells; type: cell-based; conditions: response = IFN-γ >30 pg/ml and >2 fold HIV-nef control; for Specific CD8+ T Cell Response, HLA-A2+ Normal Donors (of 8): number of responding donors of 8; for Specific CD8+ T Cell Response, HLA-A2+ Melanoma Patients (of 10): number of responding patients of 10
Protocol: The indicated peptides were pulsed onto autologous DC and used to prime and boost CD8^+ T cells isolated from the peripheral blood of eight normal HLA-A2^+ donors or ten HLA-A2^+ patients with melanoma. Seven days after the primary in vitro sensitization (IVS) (melanoma patients) or a secondary IVS boost (normal donors), T cells were analyzed for their reactivity against HLA-A2^+ T2 cells pulsed with the relevant peptide vs. the negative control HIV-nef190-198 peptide. After 24 hours of co-culture, cell-free supernatants were analyzed for levels of secreted IFN-γ using a commercial ELISA. Data are reported in Bar and Whisker plots, with p-values provided for paired pre- versus post-IVS data from normal donors and patients. In addition, p<0.05 was detected for MEL-Post versus ND-Post for the following peptides: DLK1 (309), NG2 (770), NG2 (2238), PDGFRβ (891) and RGS5 (5).
In vitro assessment of human CD8^+ T cell responses against TASA- or TAA-derived peptides. Peripheral blood mononuclear cells (PBMC) were obtained by venipuncture or leukapheresis from HLA-A2^+ normal donors or HLA-A2^+ melanoma patients with written consent under IRB-approved protocols (Table 3). CD8^+ T cells were then isolated by MACS (Miltenyi Biotec, Auburn, Calif.) and either not stimulated or stimulated with autologous, TASA peptide-pulsed DC as previously described (Tatsumi et al., Cancer Res., 63:4481-4489, 2003). Normal donor T cells were stimulated with TASA peptide-pulsed DC twice on a weekly schedule, with responder T cells harvested for analysis of their specificity 5 days after the booster stimulation (i.e. day 12 of T cell-DC co-culture). Melanoma patient CD8^+ T cells were analyzed after a single round of stimulation with TASA peptide-pulsed, autologous DC (i.e. day 5 of T cell-DC co-culture) as indicated. For DC-based stimulations, DC were pulsed with an equimolar (1 μM each) pool of the TASA peptides (Table 4) for 4 h at 37° C. at 5% CO2 tension. These antigen-loaded DC were then used to stimulate autologous CD8^+ T cells at a T cell-to-DC ratio of 10:1 to generate a bulk population of responder T cells. T cells were maintained in IMDM media supplemented with 10% human AB serum, 100 U/ml penicillin, […], 10 mM L-glutamine and MEM non-essential amino acids (all reagents from Invitrogen, except human AB serum that was purchased from Sigma-Aldrich, St. Louis, Mo.). Responder CD8^+ T cells were analyzed for reactivity against control (HLA-A2^+) T2 cells or T2 cells pulsed with individual TASA or TAA peptides (1 μM for 4 h at 37° C.) at a CD8^+ T cell-to-T2 cell ratio of 5:1 for 24 h. Harvested cell-free supernatants were consequently assessed for hIFN-γ content using a specific ELISA (BD Biosciences, San Diego, Calif.) with a lower detection limit of 4.7 pg/ml.
CD8^+ T cells from HLA-A2^+ normal donors or HLA-A2^+ melanoma patients recognize TASA-derived peptides in vitro. To assess whether the TASA-derived peptides identified in the HHD tumor model were also capable of being recognized by human CD8^+ T cells, IVS was performed using T cells isolated from the peripheral blood of HLA-A2^+ donors or HLA-A2^+ patients with melanoma. DC were pulsed with peptides derived from a given TASA for 4 h at 37° C., then washed and used as stimulator cells for autologous CD8^+ T cells. In cases where more than one peptide existed for a given protein, DC were pulsed with an equimolar (10 μM) mixture of each peptide. Two rounds of IVS using TASA for normal donors and a single-round of IVS using TASA for melanoma patients was applied. HLA-A2^+ normal donors (FIG. 4; Tables 4, 5A and 5B) and melanoma patients (FIG. 4; Tables 4, 5A and 5B) were each capable of recognizing many of the TASA-derived peptides.

RLLGNVLVCV (listed as Homo sapiens) was tested, and the “Tc1 Response to Peptide Vaccine (HHD)” value (CD8+ splenocytes) was “+ (+, p < 0.05 versus DC only)”, the “Specific CD8+ T Cell Response, HLA-A2+ Normal Donors (of 8)” value (shortened to “Specific CD8+ T Cell Response … (of 8)”) [1] was 1 and the “Specific CD8+ T Cell Response, HLA-A2+ Melanoma Patients (of 10)” value (from here on “Specific CD8+ T Cell Response … (of 10)”) [1] was 1.

In the case of RLTPGVHEL (listed as Homo sapiens), the “Tc1 Response to Peptide Vaccine (HHD)” value (CD8+ splenocytes) is reported as “+ (+, p < 0.05 versus DC only)”, the “Specific CD8+ T Cell Response … (of 8)” value [1] is reported as 1 and the “Specific CD8+ T Cell Response … (of 10)” value [1] is reported as 4.

With DIWDGIPHV (listed as Homo sapiens) the “Tc1 Response to Peptide Vaccine (HHD)” value (CD8+ splenocytes) was “+ (+, p < 0.05 versus DC only)”, the “Specific CD8+ T Cell Response … (of 8)” value [1] was 0 and the “Specific CD8+ T Cell Response … (of 10)” value [1] was 4.

In the case of TLADFDPRV (listed as Homo sapiens), the “Tc1 Response to Peptide Vaccine (HHD)” value (CD8+ splenocytes) is reported as “+ (+, p < 0.05 versus DC only)”, the “Specific CD8+ T Cell Response … (of 8)” value [1] is reported as 2 and the “Specific CD8+ T Cell Response … (of 10)” value [1] is reported as 6.

FLNKCETWV (listed as Homo sapiens) was tested, and the “Tc1 Response to Peptide Vaccine (HHD)” value (CD8+ splenocytes) was “+ (+, p < 0.05 versus DC only)”, the “Specific CD8+ T Cell Response … (of 8)” value [1] was 2 and the “Specific CD8+ T Cell Response … (of 10)” value [1] was 4.

For LLQERGVAYI (listed as Homo sapiens), the “Tc1 Response to Peptide Vaccine (HHD)” value (CD8+ splenocytes) was “+ (+, p < 0.05 versus DC only)”, the “Specific CD8+ T Cell Response … (of 8)” value [1] was 0 and the “Specific CD8+ T Cell Response … (of 10)” value [1] was 2.

In the case of VIAMFFWLL (listed as Homo sapiens), the “Tc1 Response to Peptide Vaccine (HHD)” value (CD8+ splenocytes) is reported as “+ (+, p < 0.05 versus DC only)”, the “Specific CD8+ T Cell Response … (of 8)” value [1] is reported as 0 and the “Specific CD8+ T Cell Response … (of 10)” value [1] is reported as 0.

For GMLGMVSGL (listed as Homo sapiens), the “Tc1 Response to Peptide Vaccine (HHD)” value (CD8+ splenocytes) was “+ (+, p < 0.05 versus DC only)”, the “Specific CD8+ T Cell Response … (of 8)” value [1] was 2 and the “Specific CD8+ T Cell Response … (of 10)” value [1] was 7.

With TLSNLSFPV (listed as Homo sapiens) the “Specific CD8+ T Cell Response … (of 8)” value [1] was 0 and the “Specific CD8+ T Cell Response … (of 10)” value [1] was 4.

In the case of VLLGAVCGV (listed as Homo sapiens), the “Tc1 Response to Peptide Vaccine (HHD)” value (CD8+ splenocytes) is reported as “+ (+, p < 0.05 versus DC only)”, the “Specific CD8+ T Cell Response … (of 8)” value [1] is reported as 2 and the “Specific CD8+ T Cell Response … (of 10)” value [1] is reported as 1.

In the case of LLVPTCVFLV (listed as Homo sapiens), the “Tc1 Response to Peptide Vaccine (HHD)” value (CD8+ splenocytes) is reported as “+ (+, p < 0.05 versus DC only)”, the “Specific CD8+ T Cell Response … (of 8)” value [1] is reported as 4 and the “Specific CD8+ T Cell Response … (of 10)” value [1] is reported as 4.

With TLFWLLLTL (listed as Homo sapiens) the “Tc1 Response to Peptide Vaccine (HHD)” value (CD8+ splenocytes) was “+ (+, p < 0.05 versus DC only)”, the “Specific CD8+ T Cell Response … (of 8)” value [1] was 1 and the “Specific CD8+ T Cell Response … (of 10)” value [1] was 3.

For GLLRFVTAV (listed as Homo sapiens), the “Tc1 Response to Peptide Vaccine (HHD)” value (CD8+ splenocytes) was “+ (+, p < 0.05 versus DC only)”, the “Specific CD8+ T Cell Response … (of 8)” value [1] was 2 and the “Specific CD8+ T Cell Response … (of 10)” value [1] was 7.

ILLWEIFTL (listed as Homo sapiens) was tested, and the “Tc1 Response to Peptide Vaccine (HHD)” value (CD8+ splenocytes) was “+ (+, p < 0.05 versus DC only)”, the “Specific CD8+ T Cell Response … (of 8)” value [1] was 2 and the “Specific CD8+ T Cell Response … (of 10)” value [1] was 1.

With RLLVVYPWT (listed as Homo sapiens) the “Tc1 Response to Peptide Vaccine (HHD)” value (CD8+ splenocytes) was “+ (+, p < 0.05 versus DC only)”, the “Specific CD8+ T Cell Response … (of 8)” value [1] was 2 and the “Specific CD8+ T Cell Response … (of 10)” value [1] was 6.

For LILPLLFYL (listed as Homo sapiens), the “Tc1 Response to Peptide Vaccine (HHD)” value (CD8+ splenocytes) was “+ (+, p < 0.05 versus DC only)”, the “Specific CD8+ T Cell Response … (of 8)” value [1] was 0 and the “Specific CD8+ T Cell Response … (of 10)” value [1] was 4.

In the case of YLQVDLRFL (listed as Homo sapiens), the “Specific CD8+ T Cell Response … (of 8)” value [1] is reported as 0 and the “Specific CD8+ T Cell Response … (of 10)” value [1] is reported as 4.

NMLGMLSGL (listed as Homo sapiens) was tested, and the “Specific CD8+ T Cell Response … (of 8)” value [1] was 0 and the “Specific CD8+ T Cell Response … (of 10)” value [1] was 0.

ILGVLTSLV (listed as Homo sapiens) was tested, and the “Tc1 Response to Peptide Vaccine (HHD)” value (CD8+ splenocytes) was “+ (+, p < 0.05 versus DC only)”, the “Specific CD8+ T Cell Response … (of 8)” value [1] was 2 and the “Specific CD8+ T Cell Response … (of 10)” value [1] was 6.
